# US20250120929A1, “METHOD OF TREATING VIRUS-ASSOCIATED INFECTION USING ACETAMINOPHEN” (Sanbiozi Medical Science Inc., priority 2023, published 2025)
# Tests used:
# [1] = tested on: Mv1Lu cells; assay: In vitro test for cytotoxicity of acetaminophen; assay type: cell-based, mink; conditions: five days of incubation; concentration as high as 1000 μg/mL
# Procedure: Specifically, mink lung epithelial cells, Mv1Lu, were treated with acetaminophen.
# [2] = tested on: MHV-A59; assay: In vivo test of acetaminophen against MHV-infected mice; design: species or system C57BL/6 mice; conditions: 0.25 mg/mL acetaminophen solution daily via oral gavage, MHV-A59 5×10^6 PFU/mouse i.p.
# Excerpt: The present invention utilized the Mouse Hepatitis Virus (MHV) and swine virus PRRS as the infectious agents to evaluate the effectiveness of acetaminophen in vivo. We aimed to perform mouse and piglet survival experiments to completely assess acetaminophen against virus infection as a preclinical evaluation.
# Intraperitoneal administration of MHV-A59 with high titer (5×10^6 PFU/mouse) on C57BL/6 mice to cause a high mortality rate. The MHV-infected mice were grouped as follows: 1. PBS vehicle control; 2. 0.25 mg/mL of acetaminophen solution treatment groups followed by treating acetaminophen daily via oral gavage. The viral administration cause loss of body weights on mice. […] These animal data strongly argue the potential application of acetaminophen in developing to an antiviral agent.
# [3] = tested on: PRRS virus (PRRSV2); assay: In vivo test of acetaminophen against PRRS-infected piglet; conditions: 80 mL acetaminophen therapy three times orally
# Excerpt: (§1) In this embodiment, the weaned piglets were selected according to their PRRS syndromes. The three piglets were randomly selected in accordance with the professional experience on the syndromes of PRRS and the […] principles of animal test were followed as well. Three infected piglets were proceeded for preliminary test of the effectiveness of antiviral drugs of PRRS.
# (§2) Three infected piglets raised in an isolated pen of the same pig house. Eighty milliliter acetaminophen therapy was given three times orally. Their blood samples were test weekly. Unfortunately, piglet 1 was unable to make over the first week. The other 2 piglets were able make over the process.
# [4] = tested on: PRRS virus (PRRSV2); assay: as above; design: unit not given here
# Excerpt: as §1, §2
# [5] = tested on: PRRS virus (PRRSV2); assay: as above; design: key: −: Negative; ±: Virus was detected at very low concentrations
# Excerpt: as §1, §2
structure (smiles),measurement,setting,value
CC(=O)Nc1ccc(O)cc1 [acetaminophen],cytotoxicity on Mv1Lu cells,[1],no significant cytotoxicity
same,body weight of MHV-infected mice,[2]; compared to MHV-only mice,significantly retained the mouse weights
same,survival rate (printed as mortality rate) of MHV-infected mice,[2]; virus vehicle control 100% death rate,50%
same,virus concentration in the body,[3]; piglets 2 and 3,decreased
same,survival of PRRS-infected piglets,[3]; three infected piglets,piglets 2 and piglet 3 survived
same,Concentration of PRRSV2 by RT-PCR,"[4]; Piglet 1, test 1 (weekly blood sample)",7.7 × 10 ^5
same,Concentration of PRRSV2 by RT-PCR,"[4]; Piglet 2, test 2 (weekly blood sample), weekly blood test 2",1.3 × 10^3
same,Concentration of PRRSV2 by RT-PCR,"[4]; Piglet 3, test 1 (weekly blood sample), weekly blood test 1",8.2 × 10 ^4
same,Concentration of PRRSV2 by RT-PCR,"[4]; Piglet 3, test 3 (weekly blood sample), weekly blood test 3",2.9 × 10 ^2
same,Concentration of PRRSV2 by RT-PCR,"[5]; Piglet 2, test 1 (weekly blood sample), weekly blood test 1",−
same,Concentration of PRRSV2 by RT-PCR,"[5]; Piglet 2, test 3 (weekly blood sample), weekly blood test 3",−
same,Concentration of PRRSV2 by RT-PCR,"[5]; Piglet 3, test 2 (weekly blood sample), weekly blood test 2",±
